# Reference: ChEMBL document CHEMBL5442219
# Key:
# Settings in all cases: Compound concentration 10 µM
# [1] = target: 5-hydroxytryptamine receptor 2A (Homo sapiens) (UniProt P28223)
# Description: PDSP Primary Binding target: HTR2A - Compounds are tested at 10 uM concentration, plate are incubated at room temperature in the dark for 90 minutes. Reaction are stopped by vacuum filtration onto 0.3% polyethyleneimine soaked filter mats using Filtermate harvester. Scintilation cocktail is then melted onto microwave-dried filters on a hot plate and the radio activity is counted in Microbia counter.
# [2] = target: T1, Alpha-1A adrenergic receptor (Homo sapiens) (UniProt P35348)
# T1 sequence (whole entry): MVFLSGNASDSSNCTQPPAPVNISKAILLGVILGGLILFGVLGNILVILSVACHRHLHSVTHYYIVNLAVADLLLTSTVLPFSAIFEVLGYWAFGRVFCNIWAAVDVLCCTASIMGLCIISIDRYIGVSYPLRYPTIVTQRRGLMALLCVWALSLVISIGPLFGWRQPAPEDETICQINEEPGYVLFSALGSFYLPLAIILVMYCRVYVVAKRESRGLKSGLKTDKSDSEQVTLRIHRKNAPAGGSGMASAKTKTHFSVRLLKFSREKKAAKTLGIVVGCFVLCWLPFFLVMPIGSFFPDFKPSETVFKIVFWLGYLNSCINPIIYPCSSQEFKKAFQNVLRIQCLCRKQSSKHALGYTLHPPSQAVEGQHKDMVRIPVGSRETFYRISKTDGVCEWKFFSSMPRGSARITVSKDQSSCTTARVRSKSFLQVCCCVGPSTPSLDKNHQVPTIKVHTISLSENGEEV
# Description: PDSP Primary Binding target: ADRA1A - Compounds are tested at 10 uM concentration, plate are incubated at room temperature in the dark for 90 minutes. Reaction are stopped by vacuum filtration onto 0.3% polyethyleneimine soaked filter mats using Filtermate harvester. Scintilation cocktail is then melted onto microwave-dried filters on a hot plate and the radio activity is counted in Microbia counter.
# [3] = target: T2, Muscarinic acetylcholine receptor M1 (Homo sapiens) (UniProt P11229)
# T2 sequence (whole entry): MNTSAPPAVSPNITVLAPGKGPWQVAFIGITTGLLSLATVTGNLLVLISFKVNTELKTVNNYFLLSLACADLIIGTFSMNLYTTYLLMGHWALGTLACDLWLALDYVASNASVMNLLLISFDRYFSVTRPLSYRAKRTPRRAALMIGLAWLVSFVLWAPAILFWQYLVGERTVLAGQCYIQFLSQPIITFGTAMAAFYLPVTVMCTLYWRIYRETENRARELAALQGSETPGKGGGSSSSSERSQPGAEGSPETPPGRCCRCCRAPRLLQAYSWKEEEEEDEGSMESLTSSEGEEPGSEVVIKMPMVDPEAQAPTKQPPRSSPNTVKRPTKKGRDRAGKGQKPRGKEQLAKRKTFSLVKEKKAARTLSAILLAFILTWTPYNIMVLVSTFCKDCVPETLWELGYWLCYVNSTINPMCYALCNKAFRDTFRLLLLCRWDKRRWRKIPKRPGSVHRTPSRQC
# Description: PDSP Primary Binding target: CHRM1 - Compounds are tested at 10 uM concentration, plate are incubated at room temperature in the dark for 90 minutes. Reaction are stopped by vacuum filtration onto 0.3% polyethyleneimine soaked filter mats using Filtermate harvester. Scintilation cocktail is then melted onto microwave-dried filters on a hot plate and the radio activity is counted in Microbia counter.
# [4] = target: Histamine H3 receptor (Homo sapiens) (UniProt Q9Y5N1)
# Sequence of Histamine H3 receptor (Homo sapiens) (Q9Y5N1 whole entry): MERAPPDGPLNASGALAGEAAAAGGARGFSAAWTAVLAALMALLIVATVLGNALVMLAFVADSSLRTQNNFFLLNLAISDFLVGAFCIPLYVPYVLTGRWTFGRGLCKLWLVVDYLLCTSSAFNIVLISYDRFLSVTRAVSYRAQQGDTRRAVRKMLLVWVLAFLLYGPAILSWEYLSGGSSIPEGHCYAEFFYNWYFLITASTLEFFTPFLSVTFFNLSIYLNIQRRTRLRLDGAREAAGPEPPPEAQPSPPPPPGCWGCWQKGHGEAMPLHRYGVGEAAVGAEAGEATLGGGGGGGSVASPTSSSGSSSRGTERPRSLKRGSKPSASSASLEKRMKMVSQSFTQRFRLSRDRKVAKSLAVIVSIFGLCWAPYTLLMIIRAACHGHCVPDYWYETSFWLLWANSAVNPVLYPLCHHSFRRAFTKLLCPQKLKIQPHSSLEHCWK
# Description: PDSP Primary Binding target: HRH3 - Compounds are tested at 10 uM concentration, plate are incubated at room temperature in the dark for 90 minutes. Reaction are stopped by vacuum filtration onto 0.3% polyethyleneimine soaked filter mats using Filtermate harvester. Scintilation cocktail is then melted onto microwave-dried filters on a hot plate and the radio activity is counted in Microbia counter.
# [5] = target: T3, Alpha-1D adrenergic receptor (Homo sapiens) (UniProt P25100)
# T3 sequence (whole entry): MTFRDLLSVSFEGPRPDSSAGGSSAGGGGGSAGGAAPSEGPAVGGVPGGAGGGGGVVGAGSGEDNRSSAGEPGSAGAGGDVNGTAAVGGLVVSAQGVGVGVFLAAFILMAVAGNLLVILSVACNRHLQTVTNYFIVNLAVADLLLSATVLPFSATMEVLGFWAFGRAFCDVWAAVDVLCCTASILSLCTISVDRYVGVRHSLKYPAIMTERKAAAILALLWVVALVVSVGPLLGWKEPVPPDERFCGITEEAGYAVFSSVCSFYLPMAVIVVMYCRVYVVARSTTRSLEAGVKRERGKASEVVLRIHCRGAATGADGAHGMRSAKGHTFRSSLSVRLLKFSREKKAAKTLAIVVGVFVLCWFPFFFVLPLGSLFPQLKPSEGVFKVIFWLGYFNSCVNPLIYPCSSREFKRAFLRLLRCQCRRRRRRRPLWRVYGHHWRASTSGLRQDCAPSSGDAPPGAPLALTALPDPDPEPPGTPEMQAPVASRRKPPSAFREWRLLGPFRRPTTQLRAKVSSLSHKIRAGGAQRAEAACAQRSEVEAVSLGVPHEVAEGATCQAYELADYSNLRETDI
# Description: PDSP Primary Binding target: ADRA1D - Compounds are tested at 10 uM concentration, plate are incubated at room temperature in the dark for 90 minutes. Reaction are stopped by vacuum filtration onto 0.3% polyethyleneimine soaked filter mats using Filtermate harvester. Scintilation cocktail is then melted onto microwave-dried filters on a hot plate and the radio activity is counted in Microbia counter.
# [6] = target: Mu-type opioid receptor (Homo sapiens) (UniProt P35372)
# Sequence of Mu-type opioid receptor (Homo sapiens) (P35372 whole entry): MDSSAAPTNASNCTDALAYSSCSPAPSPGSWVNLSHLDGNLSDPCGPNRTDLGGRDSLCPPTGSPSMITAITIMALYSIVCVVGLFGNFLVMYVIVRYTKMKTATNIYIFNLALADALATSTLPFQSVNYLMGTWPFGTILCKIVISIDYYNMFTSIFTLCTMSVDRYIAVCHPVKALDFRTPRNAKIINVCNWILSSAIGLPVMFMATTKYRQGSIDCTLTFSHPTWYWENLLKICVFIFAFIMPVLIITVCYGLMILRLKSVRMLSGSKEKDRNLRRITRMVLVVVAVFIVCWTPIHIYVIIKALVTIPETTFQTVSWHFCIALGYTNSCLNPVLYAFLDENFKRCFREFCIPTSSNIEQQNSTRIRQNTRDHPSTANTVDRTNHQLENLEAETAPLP
# Description: PDSP Primary Binding target: OPRM1 - Compounds are tested at 10 uM concentration, plate are incubated at room temperature in the dark for 90 minutes. Reaction are stopped by vacuum filtration onto 0.3% polyethyleneimine soaked filter mats using Filtermate harvester. Scintilation cocktail is then melted onto microwave-dried filters on a hot plate and the radio activity is counted in Microbia counter.
# [7] = target: T4, Muscarinic acetylcholine receptor M4 (Homo sapiens) (UniProt P08173)
# T4 sequence (whole entry): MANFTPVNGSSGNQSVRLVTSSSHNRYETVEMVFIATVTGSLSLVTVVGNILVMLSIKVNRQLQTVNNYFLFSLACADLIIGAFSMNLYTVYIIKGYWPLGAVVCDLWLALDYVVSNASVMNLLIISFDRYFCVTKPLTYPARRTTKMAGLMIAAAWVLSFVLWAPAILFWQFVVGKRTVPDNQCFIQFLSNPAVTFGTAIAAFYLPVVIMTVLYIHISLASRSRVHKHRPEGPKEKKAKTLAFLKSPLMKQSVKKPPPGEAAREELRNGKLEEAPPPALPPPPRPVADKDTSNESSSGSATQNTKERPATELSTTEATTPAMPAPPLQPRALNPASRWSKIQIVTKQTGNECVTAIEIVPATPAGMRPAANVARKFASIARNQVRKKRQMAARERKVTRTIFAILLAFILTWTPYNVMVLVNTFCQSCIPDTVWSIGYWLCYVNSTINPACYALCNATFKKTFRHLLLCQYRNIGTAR
# Description: PDSP Primary Binding target: CHRM4 - Compounds are tested at 10 uM concentration, plate are incubated at room temperature in the dark for 90 minutes. Reaction are stopped by vacuum filtration onto 0.3% polyethyleneimine soaked filter mats using Filtermate harvester. Scintilation cocktail is then melted onto microwave-dried filters on a hot plate and the radio activity is counted in Microbia counter.
# [8] = target: T5, Alpha-2B adrenergic receptor (Homo sapiens) (UniProt P18089)
# T5 sequence (whole entry): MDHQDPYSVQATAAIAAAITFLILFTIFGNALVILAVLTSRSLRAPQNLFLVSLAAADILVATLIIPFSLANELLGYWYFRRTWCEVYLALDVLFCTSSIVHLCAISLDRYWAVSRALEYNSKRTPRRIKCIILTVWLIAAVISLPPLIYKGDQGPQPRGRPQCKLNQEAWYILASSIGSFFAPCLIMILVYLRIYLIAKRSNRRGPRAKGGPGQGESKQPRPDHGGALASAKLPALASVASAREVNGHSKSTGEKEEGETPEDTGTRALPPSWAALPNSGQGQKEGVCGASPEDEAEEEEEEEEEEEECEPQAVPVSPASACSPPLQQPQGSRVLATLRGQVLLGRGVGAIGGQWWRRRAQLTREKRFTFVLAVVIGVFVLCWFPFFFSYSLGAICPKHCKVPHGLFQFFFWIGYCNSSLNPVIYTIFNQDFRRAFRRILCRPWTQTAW
# Description: PDSP Primary Binding target: ADRA2B - Compounds are tested at 10 uM concentration, plate are incubated at room temperature in the dark for 90 minutes. Reaction are stopped by vacuum filtration onto 0.3% polyethyleneimine soaked filter mats using Filtermate harvester. Scintilation cocktail is then melted onto microwave-dried filters on a hot plate and the radio activity is counted in Microbia counter.
# [9] = target: Delta-type opioid receptor (Homo sapiens) (UniProt P41143)
# Sequence of Delta-type opioid receptor (Homo sapiens) (P41143 whole entry): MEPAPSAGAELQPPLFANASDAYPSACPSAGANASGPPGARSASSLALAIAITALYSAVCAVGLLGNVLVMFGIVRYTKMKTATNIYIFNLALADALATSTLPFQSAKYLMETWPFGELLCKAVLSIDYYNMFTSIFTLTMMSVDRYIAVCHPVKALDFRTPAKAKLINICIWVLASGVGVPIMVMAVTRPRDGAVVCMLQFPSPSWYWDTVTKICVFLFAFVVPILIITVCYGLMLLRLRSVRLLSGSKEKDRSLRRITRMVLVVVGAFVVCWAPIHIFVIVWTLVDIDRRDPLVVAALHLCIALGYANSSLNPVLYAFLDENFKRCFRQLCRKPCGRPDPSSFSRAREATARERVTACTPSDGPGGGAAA
# Description: PDSP Primary Binding target: OPRD1 - Compounds are tested at 10 uM concentration, plate are incubated at room temperature in the dark for 90 minutes. Reaction are stopped by vacuum filtration onto 0.3% polyethyleneimine soaked filter mats using Filtermate harvester. Scintilation cocktail is then melted onto microwave-dried filters on a hot plate and the radio activity is counted in Microbia counter.
# [10] = target: D(1B) dopamine receptor (Homo sapiens) (UniProt P21918)
# Sequence of D(1B) dopamine receptor (Homo sapiens) (P21918 whole entry): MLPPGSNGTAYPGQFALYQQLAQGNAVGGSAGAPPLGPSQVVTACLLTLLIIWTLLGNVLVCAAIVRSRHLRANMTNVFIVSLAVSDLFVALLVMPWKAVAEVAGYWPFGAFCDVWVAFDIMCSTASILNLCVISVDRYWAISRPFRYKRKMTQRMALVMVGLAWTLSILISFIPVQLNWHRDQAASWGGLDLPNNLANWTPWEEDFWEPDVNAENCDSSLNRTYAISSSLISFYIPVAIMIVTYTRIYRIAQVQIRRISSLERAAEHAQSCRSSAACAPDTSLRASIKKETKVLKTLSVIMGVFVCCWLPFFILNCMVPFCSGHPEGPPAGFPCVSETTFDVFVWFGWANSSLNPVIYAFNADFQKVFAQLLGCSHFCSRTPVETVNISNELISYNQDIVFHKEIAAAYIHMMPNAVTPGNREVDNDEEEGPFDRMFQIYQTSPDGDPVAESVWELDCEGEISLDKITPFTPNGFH
# Description: PDSP Primary Binding target: DRD5 - Compounds are tested at 10 uM concentration, plate are incubated at room temperature in the dark for 90 minutes. Reaction are stopped by vacuum filtration onto 0.3% polyethyleneimine soaked filter mats using Filtermate harvester. Scintilation cocktail is then melted onto microwave-dried filters on a hot plate and the radio activity is counted in Microbia counter.
# [11] = target: 5-hydroxytryptamine receptor 1E (Homo sapiens) (UniProt P28566)
# Sequence of 5-hydroxytryptamine receptor 1E (Homo sapiens) (P28566 whole entry): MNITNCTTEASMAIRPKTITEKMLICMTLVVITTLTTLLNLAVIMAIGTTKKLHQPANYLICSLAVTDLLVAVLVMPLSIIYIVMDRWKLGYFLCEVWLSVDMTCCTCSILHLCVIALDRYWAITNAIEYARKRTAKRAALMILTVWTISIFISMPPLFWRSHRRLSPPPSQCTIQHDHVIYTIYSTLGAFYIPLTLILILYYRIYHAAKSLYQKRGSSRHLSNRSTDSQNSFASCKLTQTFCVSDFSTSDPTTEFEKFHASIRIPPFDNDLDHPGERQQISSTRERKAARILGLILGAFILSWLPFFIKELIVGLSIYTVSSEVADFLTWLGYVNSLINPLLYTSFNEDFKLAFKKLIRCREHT
# Description: PDSP Primary Binding target: HTR1E - Compounds are tested at 10 uM concentration, plate are incubated at room temperature in the dark for 90 minutes. Reaction are stopped by vacuum filtration onto 0.3% polyethyleneimine soaked filter mats using Filtermate harvester. Scintilation cocktail is then melted onto microwave-dried filters on a hot plate and the radio activity is counted in Microbia counter.
# [12] = target: Sigma intracellular receptor 2 (Homo sapiens) (UniProt Q5BJF2)
# Sequence of Sigma intracellular receptor 2 (Homo sapiens) (Q5BJF2 whole entry): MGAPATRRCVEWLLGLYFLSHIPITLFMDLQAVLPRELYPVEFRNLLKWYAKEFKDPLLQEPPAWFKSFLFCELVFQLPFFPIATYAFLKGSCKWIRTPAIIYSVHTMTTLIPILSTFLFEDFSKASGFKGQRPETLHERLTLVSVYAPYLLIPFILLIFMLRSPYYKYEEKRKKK
# Description: PDSP Primary Binding target: TMEM97 - Compounds are tested at 10 uM concentration, plate are incubated at room temperature in the dark for 90 minutes. Reaction are stopped by vacuum filtration onto 0.3% polyethyleneimine soaked filter mats using Filtermate harvester. Scintilation cocktail is then melted onto microwave-dried filters on a hot plate and the radio activity is counted in Microbia counter.
# [13] = target: Beta-2 adrenergic receptor (Homo sapiens) (UniProt P07550)
# Sequence of Beta-2 adrenergic receptor (Homo sapiens) (P07550 whole entry, looked up): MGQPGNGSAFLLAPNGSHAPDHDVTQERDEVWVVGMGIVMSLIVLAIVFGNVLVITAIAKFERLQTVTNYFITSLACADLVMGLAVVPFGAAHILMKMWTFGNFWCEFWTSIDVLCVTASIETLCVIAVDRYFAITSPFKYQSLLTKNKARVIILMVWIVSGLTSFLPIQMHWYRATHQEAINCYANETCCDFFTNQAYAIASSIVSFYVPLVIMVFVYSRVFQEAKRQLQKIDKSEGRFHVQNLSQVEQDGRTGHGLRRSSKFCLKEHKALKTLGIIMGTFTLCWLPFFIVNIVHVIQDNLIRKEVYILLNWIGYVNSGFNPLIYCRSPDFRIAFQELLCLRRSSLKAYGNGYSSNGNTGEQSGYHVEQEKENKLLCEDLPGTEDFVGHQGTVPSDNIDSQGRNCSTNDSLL
# Description: PDSP Primary Binding target: ADRB2 - Compounds are tested at 10 uM concentration, plate are incubated at room temperature in the dark for 90 minutes. Reaction are stopped by vacuum filtration onto 0.3% polyethyleneimine soaked filter mats using Filtermate harvester. Scintilation cocktail is then melted onto microwave-dried filters on a hot plate and the radio activity is counted in Microbia counter.
# Sequence of 5-hydroxytryptamine receptor 2A (Homo sapiens) (P28223 whole entry): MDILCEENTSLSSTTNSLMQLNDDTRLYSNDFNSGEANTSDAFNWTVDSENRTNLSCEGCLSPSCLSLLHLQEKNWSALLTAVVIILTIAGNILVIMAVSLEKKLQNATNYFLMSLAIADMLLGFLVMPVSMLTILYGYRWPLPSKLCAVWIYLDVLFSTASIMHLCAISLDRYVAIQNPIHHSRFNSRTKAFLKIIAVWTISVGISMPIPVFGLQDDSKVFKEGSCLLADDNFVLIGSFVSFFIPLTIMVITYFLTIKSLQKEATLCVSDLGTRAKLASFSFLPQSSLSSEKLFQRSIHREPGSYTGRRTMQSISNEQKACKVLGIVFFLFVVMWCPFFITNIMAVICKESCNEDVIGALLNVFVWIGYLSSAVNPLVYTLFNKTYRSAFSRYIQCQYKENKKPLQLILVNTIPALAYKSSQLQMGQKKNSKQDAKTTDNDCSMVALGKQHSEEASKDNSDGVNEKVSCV
Compound,inhibition [1] [%],inhibition [2] [%],inhibition [3] [%],inhibition [4] [%],inhibition [5] [%],inhibition [6] [%],inhibition [7] [%],inhibition [8] [%],inhibition [9] [%],inhibition [10] [%],inhibition [11] [%],inhibition [12] [%],inhibition [13] [%]
CN1CCC(C(=O)c2cccc(NC(=O)c3c(F)cc(F)cc3F)n2)CC1,1.42,17.6,43.1,3.79,6.55,10.5,27,20.8,1.97,73.7,102,91,-3.08
COc1ccc(NC(=O)c2ccc(-c3ccc(-c4noc(C)n4)cc3C)cc2)cc1OCCN(C)C,95.4,17.3,50.7,65.4,38,5.21,7.57,77.3,0.83,48.4,52.5,84.2,13.1
O=c1ccc2ccc(OCCCCN3CCN(c4cccc5sccc45)CC3)cc2[nH]1,97.1,100,30.3,54.5,92.5,26.8,30.5,94.3,-1.82,88.1,92.3,95.6,78.8
NCCc1cn(S(=O)(=O)c2c(Cl)nc3sccn23)c2ccccc12,94.2,57.5,38.9,55.7,38.2,16.8,16.1,47.2,6.57,38.9,23.3,82.9,39.8
CN1CCCC(n2nc(Cc3ccc(Cl)cc3)c3ccccc3c2=O)CC1 (configuration not stated),96.7,87.7,82.9,28.5,88.2,29.4,83.7,79.1,24.1,24.1,57.6,97,-8.69
c1nc(CC2CCNCC2)c[nH]1,20.8,-4.11,6.59,95.9,7.26,-6.55,-0.76,23,3.71,5.35,9.31,27.7,5.09
Cc1cc(NC(=O)NCCN2CCC(O)(Cc3ccccc3)CC2)c2ccccc2n1,52.7,23.9,13.7,31,16.2,43.3,17.1,29.6,15.6,41.9,5.03,86,28.1
Cc1c(P(=S)(c2ccccc2)c2ccccc2)n2ccccc2[n+]1C/C=C/c1ccccc1,55.7,28.7,88.2,15,8.81,87.3,68.4,45.7,36.7,24.6,1.99,88,65.4
CN(C)C(=O)N[C@H]1CC[C@H](CCN2CCN(c3cccc(Cl)c3Cl)CC2)CC1,110,89.1,11.8,4.23,89.4,4.29,64,90.6,11.3,-0.02,48,88.3,31.6
OC[C@H]1O[C@@H](n2cnc3c(NC4CCCC4)ncnc32)[C@H](O)[C@@H]1O,-8.74,-0.37,15.4,7.78,-2.06,–,3.39,11,-3.21,80.8,-3.16,14.2,-3.65
Cc1cc(C)cc(-c2cnc3cc(Cl)c(-c4cccc(O)c4)cc3c2OCCCN)c1,63.2,28.4,24.3,10.6,53.7,75.9,8.82,25.7,50.2,72.9,54.4,94.9,92.8
Cc1cn2cc(CC(=O)N3CCC4(CC3)CN(Cc3ccc(-n5nccn5)cc3Cl)C4)nc2s1,-2.36,-6.22,51.1,3.15,13.3,21.4,87.5,11,18.8,-4.31,-2.62,43.3,67.1
O=C(O)c1cc(-c2ccc(C3CCNCC3)cc2)c2ccc(-c3ccc(C(F)(F)F)cc3)cc2c1,28.4,–,23.8,10.6,16.7,26.5,-1.1,40.4,14,81,2.57,81.1,-2.41
